# From article PMC6332508, “A Promising PET Tracer for Imaging of α7 Nicotinic Acetylcholine Receptors in the Brain: Design, Synthesis, and in Vivo Evaluation of a Dibenzothiophene-Based Radioligand” (Molecules, 2015)
# Where two headings read alike, the source gives them in different places.
# Columns and labels:
# α1 nAChR = molecular target: T1, α1 nAChR (Homo sapiens, UniProt P02708+P07510+Q07001); assay: Off-target radioligand binding assay, α1 nAChR; details: 1 μM; significant at ≥50% inhibition or stimulation
# T1 construct: Eurofins Panlabs, Inc
# Experimental: (§1) The activity of compound 10a was evaluated by a contract research organization (Eurofins Panlabs, Inc.). The test concentration was 1 μM and radioligand binding assays for dopamine transporter (DAT), serotonin transporter (SERT), norepinephrine transporter (NET), monoamine transporter (VMAT), choline transporter, and α1 nAChR performed according to the manufacturer’s protocols.
# human 5-HT3 receptor = molecular target: T2, human 5-HT3 receptor (Homo sapiens, UniProt P46098); assay: Radioligand binding at human 5-HT3 receptor, [3H]GR65630 (Eurofins Panlabs)
# T2 construct: host or cells: HEK-293
# T2 sequence (P46098 24-478): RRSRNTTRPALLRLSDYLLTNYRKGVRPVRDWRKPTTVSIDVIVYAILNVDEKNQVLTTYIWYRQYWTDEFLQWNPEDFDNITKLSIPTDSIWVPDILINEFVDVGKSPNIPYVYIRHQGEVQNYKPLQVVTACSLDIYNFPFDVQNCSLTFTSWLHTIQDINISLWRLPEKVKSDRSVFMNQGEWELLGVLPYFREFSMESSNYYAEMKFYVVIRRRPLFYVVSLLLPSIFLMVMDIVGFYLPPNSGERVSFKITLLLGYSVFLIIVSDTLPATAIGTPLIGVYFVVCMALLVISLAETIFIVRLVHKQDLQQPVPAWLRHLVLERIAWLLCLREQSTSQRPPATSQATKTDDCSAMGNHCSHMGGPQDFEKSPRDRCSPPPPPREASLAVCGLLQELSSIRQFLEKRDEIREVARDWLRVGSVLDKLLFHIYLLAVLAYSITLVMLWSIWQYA
# [1] = molecular target: T3, norepinephrine transporter (NET) (Homo sapiens, UniProt P23975); assay: Off-target radioligand binding assay, NET; details: 1 μM; significant at ≥50% inhibition or stimulation
# T3 construct: Eurofins Panlabs, Inc
# T3 sequence (P23975 whole entry, species assumed): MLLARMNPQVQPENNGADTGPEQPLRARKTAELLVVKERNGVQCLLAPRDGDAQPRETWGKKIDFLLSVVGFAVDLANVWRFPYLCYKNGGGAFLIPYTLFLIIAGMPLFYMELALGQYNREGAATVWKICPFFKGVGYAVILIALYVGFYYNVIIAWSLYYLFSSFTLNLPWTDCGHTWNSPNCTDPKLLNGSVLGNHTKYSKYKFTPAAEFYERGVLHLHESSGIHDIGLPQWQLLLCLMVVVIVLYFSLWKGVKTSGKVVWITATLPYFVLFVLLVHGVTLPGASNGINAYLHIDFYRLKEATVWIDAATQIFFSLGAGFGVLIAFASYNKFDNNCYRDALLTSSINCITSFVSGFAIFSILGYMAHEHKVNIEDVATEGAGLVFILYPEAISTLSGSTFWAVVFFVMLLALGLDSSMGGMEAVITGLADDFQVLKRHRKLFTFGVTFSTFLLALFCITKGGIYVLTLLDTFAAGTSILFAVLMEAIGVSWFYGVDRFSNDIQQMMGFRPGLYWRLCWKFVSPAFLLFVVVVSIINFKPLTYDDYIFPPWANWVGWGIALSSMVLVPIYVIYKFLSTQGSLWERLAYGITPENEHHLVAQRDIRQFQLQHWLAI
# Experimental: as §1
# human α4β2 nAChR = molecular target: T4, human α4β2 nAChR (Homo sapiens, UniProt P17787+P43681); assay: Radioligand displacement at human α4β2 nAChR, [3H]epibatidine, HEK293 cells; format: binding; details: stably transfected HEK-293 cells, [3H]epibatidine; read-out: Affinity (Ki in nM) hα4β2
# T4 construct: expressed in transfected cells; host or cells: HEK293
# Experimental: (§2) The affinity of the test compounds for human α4β2 and α3β4 nAChR was determined as described above. In brief, HEK293 cells stably expressing human α4β2 or α3β4 nAChR [66] were cultured. […] Nonspecific binding was determined in the presence of 300 μM (−)-nicotine tartrate. Incubation of the samples, separation of free from receptor-bound radioligand, and data evaluation were performed as described above.
# α3β4 nAChR = molecular target: α3β4 nAChR; design: method as in PMID 24050653; details: rat receptor subtype; cited from earlier work
# human α7 nAChR = molecular target: T5, human α7 nAChR (Homo sapiens, UniProt P36544); assay: Radioligand displacement at human α7 nAChR, [3H]methyllycaconitine, SH-SY5Y cells; format: binding
# T5 construct: expressed in transfected cells; host or cells: SH-SY5Y
# T5 sequence (P36544 23-502): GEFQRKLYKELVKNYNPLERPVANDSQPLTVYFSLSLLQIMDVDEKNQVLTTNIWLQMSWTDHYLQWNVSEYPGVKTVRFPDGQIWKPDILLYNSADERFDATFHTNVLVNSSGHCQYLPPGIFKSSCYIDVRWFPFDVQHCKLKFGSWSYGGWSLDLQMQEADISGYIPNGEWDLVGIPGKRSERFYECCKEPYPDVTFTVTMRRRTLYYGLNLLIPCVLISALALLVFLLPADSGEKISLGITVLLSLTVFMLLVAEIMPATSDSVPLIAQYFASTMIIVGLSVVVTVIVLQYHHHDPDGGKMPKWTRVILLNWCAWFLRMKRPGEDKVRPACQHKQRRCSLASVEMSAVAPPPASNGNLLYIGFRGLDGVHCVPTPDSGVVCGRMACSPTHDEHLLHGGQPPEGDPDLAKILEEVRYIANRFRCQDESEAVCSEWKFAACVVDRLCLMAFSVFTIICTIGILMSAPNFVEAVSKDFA
# α7 nAChR [2] = details: [125I]α-bungarotoxin labelled rat cortical membranes; cited from earlier work
# rat α6β2* nAChR = rat α6β2* nAChR (Rattus norvegicus, UniProt P12390+P43143); assay: [3H]epibatidine binding to antibody-immobilized native rat α6β2* nAChR from striatum; details: read-out: Affinity (Ki in nM) rα6β2*, immunoimmobilization with anti-rα6 antibody, [3H]epibatidine 0.1 nM
# Chain of rat α6β2* nAChR (P43143 31-493): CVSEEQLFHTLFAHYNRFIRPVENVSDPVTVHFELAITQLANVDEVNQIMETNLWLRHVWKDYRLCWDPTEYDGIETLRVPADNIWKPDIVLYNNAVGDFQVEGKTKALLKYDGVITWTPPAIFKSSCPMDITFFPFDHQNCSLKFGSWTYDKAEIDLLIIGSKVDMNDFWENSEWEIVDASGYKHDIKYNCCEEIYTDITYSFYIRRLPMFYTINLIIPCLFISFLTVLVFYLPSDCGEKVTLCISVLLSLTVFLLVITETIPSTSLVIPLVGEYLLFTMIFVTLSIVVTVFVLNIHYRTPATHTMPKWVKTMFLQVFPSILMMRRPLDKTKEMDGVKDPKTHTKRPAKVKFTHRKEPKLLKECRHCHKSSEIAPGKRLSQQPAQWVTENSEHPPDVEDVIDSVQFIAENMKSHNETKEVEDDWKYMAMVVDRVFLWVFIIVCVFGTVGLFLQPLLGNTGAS
# Chain of rat α6β2* nAChR (P12391 31-464, further chain): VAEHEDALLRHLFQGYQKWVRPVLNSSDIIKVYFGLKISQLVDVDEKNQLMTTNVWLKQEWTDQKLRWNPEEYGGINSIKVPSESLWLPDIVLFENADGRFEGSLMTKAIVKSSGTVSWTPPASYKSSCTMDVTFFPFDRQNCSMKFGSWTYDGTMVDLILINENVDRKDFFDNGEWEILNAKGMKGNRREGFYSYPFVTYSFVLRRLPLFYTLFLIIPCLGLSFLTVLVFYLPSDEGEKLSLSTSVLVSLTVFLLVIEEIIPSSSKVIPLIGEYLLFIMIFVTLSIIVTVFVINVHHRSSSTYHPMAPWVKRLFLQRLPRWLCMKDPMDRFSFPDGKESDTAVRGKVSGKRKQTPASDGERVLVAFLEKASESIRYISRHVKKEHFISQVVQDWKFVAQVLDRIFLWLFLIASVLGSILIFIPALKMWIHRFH
# Chain of rat α6β2* nAChR (P12390 25-500): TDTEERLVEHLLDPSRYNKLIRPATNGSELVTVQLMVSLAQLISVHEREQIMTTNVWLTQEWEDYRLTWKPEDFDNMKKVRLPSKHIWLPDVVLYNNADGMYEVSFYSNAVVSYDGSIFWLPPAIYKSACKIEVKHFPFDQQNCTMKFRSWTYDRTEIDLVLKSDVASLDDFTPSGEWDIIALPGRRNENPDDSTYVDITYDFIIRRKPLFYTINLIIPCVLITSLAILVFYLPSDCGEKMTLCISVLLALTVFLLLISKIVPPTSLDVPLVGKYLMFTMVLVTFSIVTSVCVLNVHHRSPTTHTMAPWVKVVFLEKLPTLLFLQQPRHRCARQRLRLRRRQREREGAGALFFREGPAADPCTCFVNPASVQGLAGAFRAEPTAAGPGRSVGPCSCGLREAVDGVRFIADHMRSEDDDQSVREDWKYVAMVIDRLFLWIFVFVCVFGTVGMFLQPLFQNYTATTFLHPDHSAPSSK
# Experimental: The specificity of the anti-α6 antibody was tested as described. The receptors were prepared and immobilized as previously described by the subunit-specific antibody. […] Incubations were performed in a buffer containing 50 mM Tris-HCl, pH 7, 150 mM NaCl, 5 mM KCl, 1 mM MgCl2, 2.5 mM CaCl2, 2 mg∙mL^−1 BSA, and 0.05% Tween 20. Specific ligand binding was defined as total binding minus the binding in the presence of 100 nM (±)-epibatidine dihydrochloride hydrate.
# The experimental data obtained from the binding experiments were analyzed by means of a non-linear least square procedure using the LIGAND program. The Ki values of the test compounds were also determined by means of the LIGAND program by simultaneously fitting the data obtained from three to five independent saturation and competition binding experiments.
# [3] = molecular target: T6, dopamine transporter (DAT) (Homo sapiens, UniProt Q01959); assay: Off-target radioligand binding assay, DAT; details: 1 μM; significant at ≥50% inhibition or stimulation
# T6 construct: Eurofins Panlabs, Inc
# T6 sequence (Q01959 whole entry, species assumed): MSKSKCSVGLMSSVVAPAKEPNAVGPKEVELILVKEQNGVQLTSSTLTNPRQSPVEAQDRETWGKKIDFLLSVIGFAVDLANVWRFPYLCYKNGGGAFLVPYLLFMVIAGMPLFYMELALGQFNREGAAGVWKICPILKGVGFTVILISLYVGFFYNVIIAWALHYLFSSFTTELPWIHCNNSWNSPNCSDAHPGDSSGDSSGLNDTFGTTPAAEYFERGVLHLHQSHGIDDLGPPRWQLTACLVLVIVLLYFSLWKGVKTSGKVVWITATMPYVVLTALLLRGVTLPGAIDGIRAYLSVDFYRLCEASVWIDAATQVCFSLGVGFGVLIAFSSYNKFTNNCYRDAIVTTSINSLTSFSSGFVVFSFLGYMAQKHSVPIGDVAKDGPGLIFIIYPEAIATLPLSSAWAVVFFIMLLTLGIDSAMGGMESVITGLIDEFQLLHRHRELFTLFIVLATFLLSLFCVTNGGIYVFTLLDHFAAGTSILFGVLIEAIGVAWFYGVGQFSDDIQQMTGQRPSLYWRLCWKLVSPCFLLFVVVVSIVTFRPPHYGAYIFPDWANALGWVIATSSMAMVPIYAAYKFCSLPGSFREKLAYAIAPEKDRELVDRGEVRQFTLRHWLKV
# Experimental: as §1
# [4] = molecular target: T7, serotonin transporter (SERT) (Homo sapiens, UniProt P31645); assay: Off-target radioligand binding assay, SERT; details: 1 μM; significant at ≥50% inhibition or stimulation
# T7 construct: Eurofins Panlabs, Inc
# T7 sequence (P31645 whole entry, species assumed): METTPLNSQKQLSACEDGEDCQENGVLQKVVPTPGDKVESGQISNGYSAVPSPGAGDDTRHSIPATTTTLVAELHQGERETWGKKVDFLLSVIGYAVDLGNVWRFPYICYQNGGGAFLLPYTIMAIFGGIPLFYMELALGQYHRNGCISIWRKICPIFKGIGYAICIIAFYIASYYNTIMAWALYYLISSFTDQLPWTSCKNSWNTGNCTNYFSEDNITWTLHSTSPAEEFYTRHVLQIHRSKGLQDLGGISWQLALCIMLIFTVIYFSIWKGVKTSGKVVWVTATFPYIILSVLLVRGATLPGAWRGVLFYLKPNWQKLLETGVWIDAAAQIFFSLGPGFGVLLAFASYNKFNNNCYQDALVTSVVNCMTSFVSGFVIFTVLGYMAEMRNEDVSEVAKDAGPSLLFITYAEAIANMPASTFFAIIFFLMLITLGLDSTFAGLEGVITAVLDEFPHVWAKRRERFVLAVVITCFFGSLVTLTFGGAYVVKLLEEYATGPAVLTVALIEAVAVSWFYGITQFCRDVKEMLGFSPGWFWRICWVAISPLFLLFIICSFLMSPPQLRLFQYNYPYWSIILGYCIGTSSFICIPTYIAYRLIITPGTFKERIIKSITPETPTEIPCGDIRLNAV
# Experimental: as §1
# [5] = system: monoamine transporter (VMAT); assay: Off-target radioligand binding assay, VMAT; details: 1 μM; significant at ≥50% inhibition or stimulation
# Experimental: as §1
# human α3β4 nAChR = molecular target: T8, human α3β4 nAChR (Homo sapiens, UniProt P30926+P32297); assay: Radioligand displacement at human α3β4 nAChR, [3H]epibatidine, HEK293 cells; format: binding; details: stably transfected HEK-293 cells, [3H]epibatidine; read-out: Affinity (Ki in nM) hα3β4
# T8 construct: expressed in transfected cells; host or cells: HEK293
# T8 sequence (P32297 32-505): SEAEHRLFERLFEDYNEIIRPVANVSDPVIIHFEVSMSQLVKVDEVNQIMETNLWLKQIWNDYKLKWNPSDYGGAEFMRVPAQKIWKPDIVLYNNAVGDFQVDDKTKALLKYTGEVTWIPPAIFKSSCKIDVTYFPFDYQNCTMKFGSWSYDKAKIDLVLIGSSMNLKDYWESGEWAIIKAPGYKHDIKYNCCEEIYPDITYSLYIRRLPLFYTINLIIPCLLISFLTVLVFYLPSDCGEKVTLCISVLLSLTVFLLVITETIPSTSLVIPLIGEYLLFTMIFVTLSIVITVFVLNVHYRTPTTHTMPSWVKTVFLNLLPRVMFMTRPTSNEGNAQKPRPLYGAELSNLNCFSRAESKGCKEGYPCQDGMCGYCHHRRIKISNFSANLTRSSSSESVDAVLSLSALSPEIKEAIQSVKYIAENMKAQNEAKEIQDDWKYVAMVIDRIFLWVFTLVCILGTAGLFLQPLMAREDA
# T8 sequence (P30926 22-498): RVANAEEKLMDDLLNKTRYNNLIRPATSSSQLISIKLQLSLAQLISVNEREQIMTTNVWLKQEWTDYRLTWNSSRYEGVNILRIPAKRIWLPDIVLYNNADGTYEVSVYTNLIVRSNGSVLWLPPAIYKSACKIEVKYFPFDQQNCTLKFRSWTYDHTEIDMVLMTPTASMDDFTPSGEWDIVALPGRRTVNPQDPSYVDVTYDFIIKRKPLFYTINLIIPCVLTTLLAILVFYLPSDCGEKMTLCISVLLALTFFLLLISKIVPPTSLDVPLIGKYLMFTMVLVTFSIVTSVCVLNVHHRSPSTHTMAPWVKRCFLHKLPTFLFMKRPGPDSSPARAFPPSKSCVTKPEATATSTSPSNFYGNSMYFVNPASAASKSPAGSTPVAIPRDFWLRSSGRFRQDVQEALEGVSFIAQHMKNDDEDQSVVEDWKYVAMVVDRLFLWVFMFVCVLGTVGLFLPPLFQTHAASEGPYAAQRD
# Experimental: as §2
# choline transporter = molecular target: T9, choline transporter (Homo sapiens, UniProt Q9GZV3); assay: Off-target radioligand binding assay, choline transporter; details: 1 μM; significant at ≥50% inhibition or stimulation
# T9 construct: Eurofins Panlabs, Inc
# T9 sequence (Q9GZV3 1-580): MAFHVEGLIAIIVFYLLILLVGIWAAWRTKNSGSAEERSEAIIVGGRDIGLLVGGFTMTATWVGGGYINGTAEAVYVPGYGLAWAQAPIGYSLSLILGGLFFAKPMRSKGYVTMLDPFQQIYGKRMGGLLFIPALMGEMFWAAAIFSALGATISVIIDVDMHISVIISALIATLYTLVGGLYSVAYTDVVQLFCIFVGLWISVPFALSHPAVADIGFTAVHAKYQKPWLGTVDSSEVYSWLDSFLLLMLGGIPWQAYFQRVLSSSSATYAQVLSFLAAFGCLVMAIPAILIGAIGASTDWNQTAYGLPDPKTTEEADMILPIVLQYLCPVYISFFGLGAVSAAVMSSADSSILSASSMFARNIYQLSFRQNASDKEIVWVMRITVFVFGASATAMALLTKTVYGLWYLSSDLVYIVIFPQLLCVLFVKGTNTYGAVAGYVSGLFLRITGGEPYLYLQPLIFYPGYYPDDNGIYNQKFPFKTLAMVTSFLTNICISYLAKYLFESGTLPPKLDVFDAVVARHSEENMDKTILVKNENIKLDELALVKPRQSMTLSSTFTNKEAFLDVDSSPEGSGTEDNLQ
# Experimental: as §1
# [6] = Acute toxicity study in rats, single intravenous injection; format: in vivo, Wistar rats
# Experimental: The acute toxicity of 10a was assessed when administered by a single intravenous injection to rats followed by an observation period of 2 or 15 day (Hameln rds, Modra, Slovak Republic). The study was performed with 4 test groups, including 1 control and 3 dose groups (6.2, 62 and 620 μg∙kg^−1), with 60 males and 60 females Wistar rats divided into two experiment cohorts: Day 2 (40 males and 40 females) and Day 15 (20 males and 20 females). The animals were weighed and allocated to the test groups based on their body weights. The animals were sacrificed in two time periods (day 2 and day 15 after test item administration) and then examined macroscopically and histopathologically. The following parameters were evaluated: mortality, clinical observation, body weights, food consumption, haematology (white blood cells, red blood cells, hemoglobin, hematocrit, mean corpuscular volume, mean corpuscular hemoglobin, platelets, lympohcytes, neutrophils, eosinophils, basophils, monocytes), clinical chemistry (alkaline phosphatase, aspartate aminotransferase, alanine aminotransferase, glucose, cholesterol, triacylglycerols, creatinine, urea, bilirubin, albumin, calcium, phosphorus, sodium, potassium chloride), pathology and histopathology.
# α7 nAChR [7] = molecular target: α7 nAChR; design: method as in PMID 22281189; details: cited from earlier work
smiles,measurement,setting,value
"O=S1(=O)c2ccc(F)cc2-c2ccc(N3CCN4CCC3CC4)cc21 [Compound 10a, 7-(1,4-Diazabicyclo[3.2.2]nonan-4-yl)-2-fluorodibenzo[b,d]thiophene 5,5-dioxide]",binding to α1 nAChR,α1 nAChR,no significant binding
same,inhibition at 0.1 µM,"human 5-HT3 receptor; 0.1 μM concentration of test compound, [3H]GR65630 binding, read-out: 5-HT3 percentage of inhibition",2%
same,Ki,"human 5-HT3 receptor; recombinant HEK293 cells, [3H]GR65630, estimated from seven concentrations (20 μM–5 nM), read-out: Affinity (Ki in nM) 5-HT3",440 nM
same,binding to NET,[1],no significant binding
same,Ki,human α4β2 nAChR,517 ± 375 nM
same,Ki,α3β4 nAChR,5000 nM
same,Selectivity (Ki ratio) α7/α3β4,human α7 nAChR; Ki hα3β4 divided by Ki hα7,198
same,Selectivity (Ki ratio) α7/α4β2,human α7 nAChR; Ki hα4β2 divided by Ki hα7,862
same,Ki,"human α7 nAChR; stably transfected SH-SY5Y cells, [3H]methyllycaconitine, read-out: Affinity (Ki in nM) hα7",0.6 ± 0.44 nM
same,Ki,α7 nAChR [2],1.4 nM
same,Ki,rat α6β2* nAChR,589 ± 217 nM
same,binding to DAT,[3],no significant binding
same,binding to SERT,[4],no significant binding
same,binding to VMAT,[5],no significant binding
same,Ki,human α3β4 nAChR,119 ± 29 nM
same,binding to choline transporter,choline transporter,no significant binding
same,"body weights, control vs treated groups","[6]; 6.2, 62 and 620 μg∙kg^−1 single i.v., either gender",No statistically significant differences
same,clinical observation,"[6]; 6.2, 62 and 620 μg∙kg^−1 single i.v., rats",no notable clinical effects
same,pathological and histopathological parameters,"[6]; single i.v., Day 2 or Day 15, rats",did not result in changes
same,no observed effect level (NOEL),"[6]; single intravenous injection, rats, observation 2 or 15 day",0.62 mg/kg
CCN(CC)CCOc1ccc2c(c1)C(=O)c1cc(OCCN(CC)CC)ccc1-2 [tilorone],Ki,α7 nAChR [7],56 nM
